Source: patent EP0542497A1, “Heterocyclic compounds” (THE WELLCOME FOUNDATION LIMITED, priority 1991, dated 1993)
Read-outs that look alike come from different tables or passages of the source.

Columns and labels:
Staph. Aureus CN491 = experiment: Minimum inhibitory concentration vs microorganisms; conditions: Wellcotest broth plus 7% lysed horse blood, 18 hours, 37°C
Excerpt: (§2) The culture medium used in the test was Wellcotest broth to which lysed horse blood had been added at a final concentration of 7%. The assay was semi-automated employing 96-well Microtiter plates, and growth was monitored visually.

Past. Multocida ATCC6587 = experiment: Minimum inhibitory concentration vs microorganisms; conditions: Wellcotest broth plus 7% lysed horse blood, 18 hours, 37°C
Excerpt: as §2

DHFR = biological target: T1, DHFR (Candida albicans, UniProt P22906); experiment: biochemical
T1 sequence (P22906 1-192): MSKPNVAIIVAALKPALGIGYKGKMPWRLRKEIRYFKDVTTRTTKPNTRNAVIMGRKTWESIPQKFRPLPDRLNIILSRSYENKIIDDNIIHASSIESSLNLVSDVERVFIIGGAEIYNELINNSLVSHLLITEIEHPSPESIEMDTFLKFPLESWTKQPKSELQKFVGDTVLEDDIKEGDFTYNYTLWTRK

[1] = biological target: T2, human dihydrofolate reductase (Homo sapiens, UniProt P00374); experiment: DHFR I50, human enzyme; format: biochemical
T2 sequence (P00374 1-187): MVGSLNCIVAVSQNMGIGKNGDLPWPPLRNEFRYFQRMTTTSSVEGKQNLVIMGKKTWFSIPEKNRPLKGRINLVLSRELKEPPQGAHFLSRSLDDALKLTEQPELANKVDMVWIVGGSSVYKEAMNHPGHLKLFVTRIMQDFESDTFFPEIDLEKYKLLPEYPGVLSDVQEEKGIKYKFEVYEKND

[2] = Brain distribution in mice (brain and plasma concentrations by HPLC); format: in vivo; conditions: female CD1 mice, 30 or 40 minutes after dose; Compound 1 17mg/kg i.v., Compound 2 10mg/kg i.v., piritrexim 200mg/kg i.p., trimetrexate 100mg/kg i.p.; average of several experiments
Method: Female CD1 mice were dosed with Compound 1 (17mg/kg, i.v.), Compound 2 (10mg/kg, i.v.), piritrexim (200mg/kg,i.p.) or trimetrexate (100mg/kg, i.p.). Brain and plasma samples were collected 30 or 40 minutes later. The drugs were extracted from the samples, and their concentrations were determined using HPLC. The numbers represent the average of several experiments.

Shig. Flexneri CN6007 = experiment: Minimum inhibitory concentration vs microorganisms; conditions: Wellcotest broth plus 7% lysed horse blood, 18 hours, 37°C
Excerpt: as §2

Candida Albicans CN1863 = experiment: Minimum inhibitory concentration vs microorganisms; conditions: Wellcotest broth plus 7% lysed horse blood, 18 hours, 37°C
Excerpt: as §2

Str. Faecalis CN478 = experiment: Minimum inhibitory concentration vs microorganisms; conditions: Wellcotest broth plus 7% lysed horse blood, 18 hours, 37°C
Excerpt: as §2

[3] = biological target: T2, human dihydrofolate reductase; experiment: Enzyme binding affinity (Ki) for human dihydrofolate reductase, Henderson equation; format: biochemical; conditions: 50mM Sorenson's phosphate buffer, pH 7, 45µM dihydrofolate, 65µM NADPH
Str. Pyogenes CN10 = experiment: Minimum inhibitory concentration vs microorganisms; conditions: Wellcotest broth plus 7% lysed horse blood, 18 hours, 37°C
Excerpt: as §2

[4] = tested on: Bord. Bronchisep-tica CN385; experiment: Minimum inhibitory concentration vs microorganisms; conditions: Bord. Bronchiseptica CN385; Wellcotest broth plus 7% lysed horse blood, 18 hours, 37°C
Excerpt: as §2

Sal. Typhosa CN512 = experiment: Minimum inhibitory concentration vs microorganisms; format: cell-based; conditions: Wellcotest broth plus 7% lysed horse blood, 18 hours, 37°C
Str. Agalactiae CN1143 = experiment: Minimum inhibitory concentration vs microorganisms; conditions: Wellcotest broth plus 7% lysed horse blood, 18 hours, 37°C
Excerpt: as §2

[5] = tested on: KB3-1 epidermoid carcinoma; experiment: Cytotoxicity in cell culture (inhibition of cell growth); format: cell-based; conditions: KB 3-1, human line, continuous exposure 72 hours
Method: (§1) The cytotoxic effects of various compounds were measured by the inhibition of mammalian cell growth in culture. Cell lines were grown in RPMI-1640 media prepared without folic acid but supplemented with 10nM calcium leucovorin, 25mM HEPES and 10% dialysed fetal bovine serum. In the case of human medulloblastoma cells (Daoy), the media (containing undialysed 10% fetal bovine serum) was pretreated with the enzyme thymidine phosphorylase (20 units/ml for 30 mins. at 37°C) to remove endogenous thymidine. Cells were seeded into 96 well microtiter plates (at densities determined to give log phase growth of control cells at the end of the assay) in 150µl of medium and grown at 37°C in a humidified incubator at 6% CO₂ for 24 hours. Compounds were prepared in media at four times the highest concentration to be tested; two-fold serial dilutions were made, and compounds were added to cells. […] The EC₅₀, defined as the concentration of compound required to reduce growth to 50% of the control, was determined from a plot of per cent inhibition versus log concentration. Cells were continuously exposed to inhibitor for 72 hours.

[6] = tested on: Ehrlich ascites carcinoma; experiment: as above; format: cell-based; conditions: mouse line, continuous exposure 72 hours
Method: as §1

[7] = tested on: L cells (derived from connective tissue); experiment: as above; format: cell-based; conditions: mouse line, continuous exposure 72 hours
Method: as §1

CCRF-CEM T cells = experiment: as above; format: cell-based; conditions: human line, continuous exposure 72 hours
Method: as §1

[8] = tested on: HCT8 colon adenocarcinoma; experiment: as above; format: cell-based; conditions: HCT-8, human line, continuous exposure 72 hours
Method: as §1

D98 bone marrow cells = experiment: as above; format: cell-based; conditions: human line, continuous exposure 72 hours
Method: as §1

GC3C1 colon carcinoma = experiment: as above; format: cell-based; conditions: GC3/C1, human line, continuous exposure 72 hours
Method: as §1

[9] = tested on: MCF7 breast adenocarcinoma; experiment: as above; format: cell-based; conditions: human line, continuous exposure 72 hours
Method: as §1

P388 lymphoid neoplasm = experiment: as above; format: cell-based; conditions: mouse line, continuous exposure 72 hours
Method: as §1

Daoy medulloblastoma = experiment: as above; format: cell-based; conditions: human line, continuous exposure 72 hours, medium pretreated with thymidine phosphorylase
Method: as §1

S180 sarcoma = experiment: as above; format: cell-based; conditions: S-180, mouse line, continuous exposure 72 hours
Method: as §1

Myco. Smegmatis S3254 = experiment: Minimum inhibitory concentration vs microorganisms; conditions: Wellcotest broth plus 7% lysed horse blood, 18 hours, 37°C
Excerpt: as §2

Sal. Typhimurium S8587 = experiment: Minimum inhibitory concentration vs microorganisms; conditions: Wellcotest broth plus 7% lysed horse blood, 18 hours, 37°C
Excerpt: as §2

[10] = tested on: Mycobacterium avium complex (MAC); experiment: In vitro activity vs Mycobacterium avium complex, radiometric respirometry (BACTEC); format: cell-based; conditions: seven (7) clinical isolates of Myco. avium
[11] = tested on: Vibrio Cholerae ATCC14035; experiment: Minimum inhibitory concentration vs microorganisms; conditions: Wellcotest broth plus 7% lysed horse blood, 18 hours, 37°C
Excerpt: as §2

For `CCC(CC)n1ccc2c3c(N)nc(N)nc3ccc21` [Compound 1, 1,3-Diamino-7-(1-ethylpropyl)-7H-pyrrolo(3,2-f)quinazoline], the “M I C” value (Staph. Aureus CN491) was 0.1 µg/mL, the “M I C” value (Past. Multocida ATCC6587) was 0.1 µg/mL and the IC50 (DHFR; C.albicans enzyme, read-out: DHFR I50 C.albicans) was 4.5 nM. For the same compound, the IC50 [1] was under 1 nM, the Tissue concentration brain [2] was 5.0 µg/g and the Tissue concentration plasma [2] was 0.70 µg/mL. The “M I C” value (Shig. Flexneri CN6007) was 0.1 µg/mL, the “M I C” value (Candida Albicans CN1863) was 0.3 µg/mL and the “M I C” value (Str. Faecalis CN478) was 0.1 µg/mL. For the same compound, the Ki [3] was 0.019 nM, the “M I C” value (Str. Pyogenes CN10) was 0.1 µg/mL and the “M I C” value [4] was 0.1 µg/mL. For the same compound, the “M I C” value (Sal. Typhosa CN512) was 0.1 µg/mL, the “M I C” value (Str. Agalactiae CN1143) was 0.1 µg/mL and the EC50 [5] was 70 nM. The EC50 [6] was 1.9 nM, the EC50 [7] was 2.2 nM and the EC50 (CCRF-CEM T cells) was 0.7 nM. The EC50 [8] was 1.2 nM, the EC50 (D98 bone marrow cells) was 45 nM and the EC50 (GC3C1 colon carcinoma) was 3.5 nM. The EC50 [9] was 38 nM, the EC50 (P388 lymphoid neoplasm) was 2.7 nM and the EC50 (Daoy medulloblastoma) was 8.4 nM. The EC50 (S180 sarcoma) was 4.8 nM, the “M I C” value (Myco. Smegmatis S3254) was 0.1 µg/mL and the “M I C” value (Sal. Typhimurium S8587) was 0.1 µg/mL.
In the case of `CCC(CC)n1c(C)cc2c3c(N)nc(N)nc3ccc21` [Compound 2, 1,3-Diamino-7-(1-ethylpropyl)-8-methyl-7H-pyrrolo(3,2-f)quinazoline], the “M I C” value (Staph. Aureus CN491) is reported as 0.01 µg/mL, the “M I C” value (Past. Multocida ATCC6587) is reported as “.0001 µg/mL” and the IC50 (DHFR) is reported as under 1 nM. For the same compound, the IC50 [1] was under 1 nM, the Tissue concentration brain [2] was 2.4 µg/g and the Tissue concentration plasma [2] was 0.36 µg/mL. For the same compound, the “M I C” value (Shig. Flexneri CN6007) was 0.003 µg/mL, the “M I C” value (Candida Albicans CN1863) was 0.03 µg/mL and the “M I C” value (Str. Faecalis CN478) was “.0001 µg/mL”. It also gave an inhibition at 1 µg/mL ([10]; 1µg/ml, read-out: range of growth inhibition) of 69 to 97%, an inhibition at 5 µg/mL ([10]; 5µg/ml, read-out: range of growth inhibition) of 97 to 99% and a M I C ([10]; roughly translated from growth inhibition, read-out: average MIC) of about 1.6 µg/mL. The Ki [3] was 0.0014 nM, the “M I C” value (Str. Pyogenes CN10) was “.0001 µg/mL” and the “M I C” value [4] was 0.003 µg/mL. For the same compound, the “M I C” value [11] was “.0001 µg/mL”, the “M I C” value (Sal. Typhosa CN512) was 0.1 µg/mL and the “M I C” value (Str. Agalactiae CN1143) was “.0001 µg/mL”. It also gave an EC50 [5] of 13 nM, an EC50 [7] of 0.7 nM and an EC50 (CCRF-CEM T cells) of under 1 nM. For the same compound, the EC50 [8] was 0.3 nM, the EC50 (D98 bone marrow cells) was 12 nM and the EC50 (GC3C1 colon carcinoma) was 0.8 nM. It also gave an EC50 [9] of 0.9 nM, an EC50 (P388 lymphoid neoplasm) of 0.3 nM and an EC50 (Daoy medulloblastoma) of 0.4 nM. For the same compound, the “M I C” value (Myco. Smegmatis S3254) was 0.001 µg/mL and the “M I C” value (Sal. Typhimurium S8587) was 0.003 µg/mL.
In the case of `COc1cc(Cc2cnc(N)nc2N)cc(OC)c1OC` [Trimethoprim, 2,4-diamino-5-(3,4,5-trimethoxybenzyl)pyrimidine, reference compound], the “M I C” value (Staph. Aureus CN491) is reported as 0.1 µg/mL, the “M I C” value (Past. Multocida ATCC6587) is reported as 0.1 µg/mL and the “M I C” value (Shig. Flexneri CN6007) is reported as 0.1 µg/mL. The “M I C” value (Candida Albicans CN1863) was over 100 µg/mL, the “M I C” value (Str. Faecalis CN478) was 0.1 µg/mL and the “M I C” value (Str. Pyogenes CN10) was 0.1 µg/mL. The “M I C” value [11] was 0.3 µg/mL, the “M I C” value (Sal. Typhosa CN512) was 0.1 µg/mL and the “M I C” value (Str. Agalactiae CN1143) was 0.1 µg/mL. The “M I C” value (Myco. Smegmatis S3254) was 0.3 µg/mL and the “M I C” value (Sal. Typhimurium S8587) was 0.1 µg/mL.
